From ChEMBL document CHEMBL1201862, “PubChem BioAssay data set” (2004)
Activity calls are given as the source filed them.

Legend:
cells [1] = assay type: functional, cell-based
cells [2] = assay type: functional, cell-based; remark: listed apart in the source
[3] = target: Dual specificity tyrosine-phosphorylation-regulated kinase 1A (Rattus norvegicus, UniProt Q63470); assay type: biochemical, Homo sapiens
[4] = target: Endoplasmic reticulum aminopeptidase 1 (Homo sapiens, UniProt Q9NZ08); assay: ERAP1 aminopeptidase inhibitors, dose response, biochemical, cherry-pick, set 2, plate reader (AID 743314)
HeLa = assay: HeLa cell cytotoxicity, dose response, cytotoxicity control for MITF activator project, CellTiter-Glo luminescence, cherry-pick samples (AID 540259); assay type: functional, cell-based; details: Homo sapiens
Cytochrome P450 2D6 = Cytochrome P450 2D6 (Homo sapiens, UniProt P10635);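 also: CYP2D6 member of a cytochrome P450 panel assay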
Cytochrome P450 2C9 = Cytochrome P450 2C9 (Homo sapiens, UniProt P11712)
Cytochrome P450 1A2 = target: T1, Cytochrome P450 1A2 (Homo sapiens, UniProt P05177);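 also: PubChem cytochrome P450 panel assay, CYP1A2 panel member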
T1 sequence (P05177 whole entry): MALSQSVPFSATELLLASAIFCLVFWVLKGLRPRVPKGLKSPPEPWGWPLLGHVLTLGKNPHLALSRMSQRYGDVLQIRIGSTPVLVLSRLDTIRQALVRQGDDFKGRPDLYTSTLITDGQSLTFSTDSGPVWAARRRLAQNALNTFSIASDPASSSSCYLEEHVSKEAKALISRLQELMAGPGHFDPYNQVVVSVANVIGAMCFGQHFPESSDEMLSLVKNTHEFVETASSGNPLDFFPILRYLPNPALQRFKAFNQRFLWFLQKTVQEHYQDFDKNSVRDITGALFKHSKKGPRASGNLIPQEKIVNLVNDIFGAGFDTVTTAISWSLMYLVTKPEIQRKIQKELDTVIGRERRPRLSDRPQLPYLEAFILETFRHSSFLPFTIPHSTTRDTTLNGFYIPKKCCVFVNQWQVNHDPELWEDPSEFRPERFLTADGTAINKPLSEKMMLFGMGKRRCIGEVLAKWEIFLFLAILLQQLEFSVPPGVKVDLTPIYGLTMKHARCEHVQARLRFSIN

Cytochrome P450 3A4 = Cytochrome P450 3A4 (Homo sapiens, UniProt P08684);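 also: CYP3A4 tested as one member of a cytochrome P450 panel screen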
Escherichia coli = assay: microbe, parasite or virus in culture
[5] = HEp-2 cell cytotoxicity, dose response, cytotoxicity control for RSV inhibitor project, HTS (AID 2410); assay type: functional; details: human respiratory syncytial virus
Phospholipase A2 = Phospholipase A2 (Homo sapiens, UniProt P04054); assay type: functional;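 also: confirmatory dose-response counterscreen on phospholipase A2, testing hits that came from an ultra-high-throughput screen for ATG4B inhibitors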
Cysteine protease ATG4B = target: T2, Cysteine protease ATG4B (Homo sapiens, UniProt Q9Y4P1); assay type: functional;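 also: Fluorescence-based dose-response confirmation assay measuring inhibition of ATG4B activity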
T2 sequence (Q9Y4P1 whole entry): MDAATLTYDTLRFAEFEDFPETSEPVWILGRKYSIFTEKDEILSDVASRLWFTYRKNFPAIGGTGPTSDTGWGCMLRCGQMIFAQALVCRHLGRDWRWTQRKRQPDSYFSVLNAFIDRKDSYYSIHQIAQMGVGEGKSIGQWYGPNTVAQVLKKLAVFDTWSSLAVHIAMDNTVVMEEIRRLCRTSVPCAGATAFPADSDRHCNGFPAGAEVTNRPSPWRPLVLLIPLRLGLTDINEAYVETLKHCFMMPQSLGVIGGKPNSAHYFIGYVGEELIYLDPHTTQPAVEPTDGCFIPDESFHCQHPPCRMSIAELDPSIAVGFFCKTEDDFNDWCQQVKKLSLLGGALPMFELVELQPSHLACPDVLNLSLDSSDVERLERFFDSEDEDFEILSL

[6] = target: T3, Long-chain-fatty-acid--AMP ligase FadD28 (Mycobacterium tuberculosis, UniProt P9WQ59); assay: Fluorescence polarization aasay to screen for inhibitors that compete for the binding of FadD28 to a bisubstrate Measured in Biochemical System Using Plate Reader - 2147-01_Inhibitor_Dose_CherryPick_Activity.; assay type: functional, Mycobacterium tuberculosis H37Rv
T3 sequence (P9WQ59 whole entry): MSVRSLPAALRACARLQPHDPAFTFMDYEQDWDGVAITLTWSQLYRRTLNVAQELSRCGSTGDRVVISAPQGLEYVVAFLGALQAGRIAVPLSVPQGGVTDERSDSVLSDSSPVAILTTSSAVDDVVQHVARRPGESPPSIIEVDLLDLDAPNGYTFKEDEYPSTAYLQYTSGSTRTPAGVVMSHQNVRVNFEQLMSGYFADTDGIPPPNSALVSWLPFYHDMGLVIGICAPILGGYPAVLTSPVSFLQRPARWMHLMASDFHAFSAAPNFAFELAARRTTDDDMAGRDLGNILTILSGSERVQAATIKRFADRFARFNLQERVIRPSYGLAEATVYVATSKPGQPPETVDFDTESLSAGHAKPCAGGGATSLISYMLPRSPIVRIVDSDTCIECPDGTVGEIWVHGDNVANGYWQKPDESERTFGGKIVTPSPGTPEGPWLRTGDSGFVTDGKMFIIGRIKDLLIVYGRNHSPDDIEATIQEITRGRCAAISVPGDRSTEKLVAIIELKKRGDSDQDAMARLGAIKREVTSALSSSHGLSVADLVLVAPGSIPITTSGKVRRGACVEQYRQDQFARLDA

[7] = growth suppression of PTEN-null colon cells, dose response, cell-based, HCT116 PTEN knockout (AID 1047); assay type: functional;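 also: HCT116 colon tumor cells with PTEN knocked out; cells exposed to compound for 60 hours before readout; potency for loss of cell viability measured by luminescence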
[8] = growth suppression of beta-catenin-knockout colon cells, dose response, cell-based, HCT116, human colon tumor (AID 1045); assay type: functional;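 also: HCT116 colon tumor cells with beta catenin knocked out; cells exposed to compound for 60 hours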
[9] = Fluorescence-based cell-based high throughput dose response assay for inhibitors of the interaction of nucleotide-binding oligomerization domain containing 2 (NOD2) and the receptor-interacting serine-threonine kinase 2 (RIPK2).; assay type: functional; details: Homo sapiens
[10] = target: T4, Heat shock factor protein 1 (Mus musculus, UniProt P38532); assay: HSF1 potentiators in luciferase reporter cells, confirmation, cell-based, NIH3T3, luminescence, dose retest (AID 435004); assay type: functional;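 also: stress induced by proteasome inhibitor MG132 added 30 min after compound; luciferase reporter driven by HSF1 response element in NIH3T3 cells; actives raise luminescence as potentiators of the MG132 stress response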
T4 sequence (P38532 whole entry): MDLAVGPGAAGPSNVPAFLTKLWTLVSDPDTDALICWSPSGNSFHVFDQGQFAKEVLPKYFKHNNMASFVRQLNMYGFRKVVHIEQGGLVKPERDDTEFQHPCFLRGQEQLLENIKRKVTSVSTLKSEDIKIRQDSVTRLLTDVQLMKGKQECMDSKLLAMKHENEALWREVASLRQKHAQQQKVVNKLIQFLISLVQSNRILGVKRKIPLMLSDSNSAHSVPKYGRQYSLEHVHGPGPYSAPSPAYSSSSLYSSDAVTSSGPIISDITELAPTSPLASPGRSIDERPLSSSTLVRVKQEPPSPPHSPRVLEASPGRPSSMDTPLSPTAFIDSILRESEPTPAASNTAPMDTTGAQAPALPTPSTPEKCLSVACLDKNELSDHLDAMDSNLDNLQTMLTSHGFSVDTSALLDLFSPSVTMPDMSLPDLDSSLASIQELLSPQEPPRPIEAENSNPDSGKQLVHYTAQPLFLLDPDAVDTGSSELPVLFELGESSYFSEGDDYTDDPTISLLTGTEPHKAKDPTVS

[11] = intracellular Trypanosoma cruzi inhibitors in host cells – cell-based, plate reader, cherry-pick samples, set 3, dose response (AID 651818); assay type: functional;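 also: compounds incubated with infected cells for about four days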

Chain of Endoplasmic reticulum aminopeptidase 1 (Q9NZ08 whole entry): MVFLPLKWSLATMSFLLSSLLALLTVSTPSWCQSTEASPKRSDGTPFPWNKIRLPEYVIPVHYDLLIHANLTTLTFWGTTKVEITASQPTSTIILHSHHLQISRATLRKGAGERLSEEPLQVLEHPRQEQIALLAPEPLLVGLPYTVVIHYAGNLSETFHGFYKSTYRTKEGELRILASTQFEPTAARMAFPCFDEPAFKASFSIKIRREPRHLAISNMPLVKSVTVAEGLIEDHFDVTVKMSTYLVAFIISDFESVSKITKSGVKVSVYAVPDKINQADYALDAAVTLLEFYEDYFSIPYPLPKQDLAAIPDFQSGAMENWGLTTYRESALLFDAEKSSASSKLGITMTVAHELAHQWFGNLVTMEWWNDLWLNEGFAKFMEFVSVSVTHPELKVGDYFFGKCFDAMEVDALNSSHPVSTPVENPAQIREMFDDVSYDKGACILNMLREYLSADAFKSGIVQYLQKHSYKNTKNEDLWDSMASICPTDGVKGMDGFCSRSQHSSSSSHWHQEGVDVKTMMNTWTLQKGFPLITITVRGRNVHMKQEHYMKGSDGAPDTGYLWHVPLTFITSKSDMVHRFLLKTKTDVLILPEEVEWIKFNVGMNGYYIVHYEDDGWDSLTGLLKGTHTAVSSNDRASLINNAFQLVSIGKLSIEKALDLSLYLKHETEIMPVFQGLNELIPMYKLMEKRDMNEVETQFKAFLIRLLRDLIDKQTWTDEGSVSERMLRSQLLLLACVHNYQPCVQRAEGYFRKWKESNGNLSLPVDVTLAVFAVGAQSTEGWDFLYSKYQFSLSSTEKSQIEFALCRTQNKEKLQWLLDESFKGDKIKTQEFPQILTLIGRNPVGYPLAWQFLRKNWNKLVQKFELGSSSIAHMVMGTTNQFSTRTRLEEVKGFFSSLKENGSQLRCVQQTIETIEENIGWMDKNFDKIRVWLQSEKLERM
Chain of Cytochrome P450 2D6 (P10635 whole entry): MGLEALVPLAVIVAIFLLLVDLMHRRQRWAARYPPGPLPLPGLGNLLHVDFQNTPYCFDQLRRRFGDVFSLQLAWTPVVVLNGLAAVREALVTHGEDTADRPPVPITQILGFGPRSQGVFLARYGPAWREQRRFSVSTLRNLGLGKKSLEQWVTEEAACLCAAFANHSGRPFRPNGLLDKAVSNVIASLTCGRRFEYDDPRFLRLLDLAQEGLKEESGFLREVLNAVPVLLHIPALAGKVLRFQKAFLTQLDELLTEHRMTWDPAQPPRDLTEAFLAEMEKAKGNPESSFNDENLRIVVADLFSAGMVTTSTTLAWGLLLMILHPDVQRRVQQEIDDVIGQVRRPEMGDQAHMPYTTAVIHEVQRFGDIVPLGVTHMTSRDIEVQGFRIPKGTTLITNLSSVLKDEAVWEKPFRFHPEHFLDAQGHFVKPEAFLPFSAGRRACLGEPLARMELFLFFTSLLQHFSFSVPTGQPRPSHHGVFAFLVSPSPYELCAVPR
Chain of Cytochrome P450 2C9 (P11712 whole entry): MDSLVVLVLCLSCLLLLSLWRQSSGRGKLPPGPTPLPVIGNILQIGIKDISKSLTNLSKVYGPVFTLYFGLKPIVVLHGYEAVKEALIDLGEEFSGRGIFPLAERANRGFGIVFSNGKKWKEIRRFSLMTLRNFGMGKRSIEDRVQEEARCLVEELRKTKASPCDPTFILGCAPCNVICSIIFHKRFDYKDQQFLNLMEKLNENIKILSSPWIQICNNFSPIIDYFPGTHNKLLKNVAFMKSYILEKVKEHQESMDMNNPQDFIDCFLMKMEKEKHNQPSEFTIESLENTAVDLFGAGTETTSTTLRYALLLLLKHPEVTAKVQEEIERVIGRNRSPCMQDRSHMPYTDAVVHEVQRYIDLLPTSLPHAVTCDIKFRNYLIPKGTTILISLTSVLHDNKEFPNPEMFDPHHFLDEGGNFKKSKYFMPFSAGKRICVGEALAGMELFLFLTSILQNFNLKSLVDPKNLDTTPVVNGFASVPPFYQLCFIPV
Chain of Cytochrome P450 3A4 (P08684 whole entry): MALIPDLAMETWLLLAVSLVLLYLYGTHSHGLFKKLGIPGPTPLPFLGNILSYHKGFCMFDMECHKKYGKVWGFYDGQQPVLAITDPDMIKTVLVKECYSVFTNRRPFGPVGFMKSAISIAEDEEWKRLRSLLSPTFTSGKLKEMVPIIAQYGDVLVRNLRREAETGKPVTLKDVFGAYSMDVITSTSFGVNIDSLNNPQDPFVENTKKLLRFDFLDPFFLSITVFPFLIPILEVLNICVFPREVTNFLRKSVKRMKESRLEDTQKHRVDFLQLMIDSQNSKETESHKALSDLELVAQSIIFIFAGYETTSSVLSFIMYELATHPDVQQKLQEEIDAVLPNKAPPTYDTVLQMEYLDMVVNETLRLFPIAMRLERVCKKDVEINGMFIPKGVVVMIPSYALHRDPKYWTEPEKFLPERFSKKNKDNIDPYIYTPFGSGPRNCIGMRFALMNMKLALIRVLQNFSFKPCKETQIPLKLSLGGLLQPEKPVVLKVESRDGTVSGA
Chain of Phospholipase A2 (P04054 whole entry): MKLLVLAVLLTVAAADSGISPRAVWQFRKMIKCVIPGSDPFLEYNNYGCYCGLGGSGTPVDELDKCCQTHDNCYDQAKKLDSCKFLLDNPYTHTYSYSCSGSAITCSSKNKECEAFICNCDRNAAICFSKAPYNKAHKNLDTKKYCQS

Structure (SMILES): C[C@@H]1O[C@@H](OC[C@H]2O[C@@H](Oc3c(-c4ccc(O)cc4)oc4cc(O)cc(O)c4c3=O)[C@H](O)[C@@H](O)[C@@H]2O)[C@H](O)[C@H](O)[C@H]1O [NICOTIFLOROSIDE]
- EC50 (cells [1]): > 350 µM (not active)
- EC50 (cells [2]): > 350 µM (not active)
- AC50 [3]: 7.78 µM (active)

Structure (SMILES): O=C([C@@H]1[C@@H](CO)[C@@H]2Cn3c(ccc(/C=C/c4ccccc4)c3=O)[C@@H]2N1CC1CC1)N1CCOCC1
- AC50 [4]: 13.7 µM (active)

Structure (SMILES): O=C(NCCc1c[nH]c2ccccc12)c1cc(Cl)c2c(c1)OCO2
- AC50 (HeLa): 70.3 µM (active)

Structure (SMILES): Cc1cc2ccccc2nc1SCC(=O)Nc1nc(-c2ccccc2)cs1
- AC50 (Cytochrome P450 2D6): inconclusive
- AC50 (Cytochrome P450 2C9): 1.12 µM (inconclusive)
- AC50 (Cytochrome P450 1A2): 0.2 µM (inconclusive)
- AC50 (Cytochrome P450 3A4): 0.178 µM (inconclusive)

Structure (SMILES): Cc1ccc(-c2cc(C(F)F)n3ncc(C(=O)Nc4ccc(S(=O)(=O)Nc5ccccc5C)cc4)c3n2)cc1
- AC50 (Escherichia coli): 21.5 µM (active)

Structure (SMILES): CN(CCC#N)C(=O)c1cc2c(s1)-c1ccccc1SC2
- AC50 (HeLa): 63.4 µM (active)
- CC50 [5]: 28 µM (active)

Structure (SMILES): O=C(O)c1cc(Br)ccc1NN=C1CCCCC1
- IC50 (Phospholipase A2): 9.4 µM (active)
- IC50 (Cysteine protease ATG4B): 13.4 µM (active)
- AC50 [6]: > 100 µM (inactive)

Structure (SMILES): Cc1cc(SC#N)cc(C)c1NC(=O)CCl
- EC50 [7]: 19.8 µM (active)
- EC50 [8]: 17.4 µM (active)
- IC50 [9]: 11.1 µM (inactive)
- EC50 [10]: 5.97 µM (active)

Structure (SMILES): O=C(NCc1ccccc1)[C@@H]1[C@@H](CO)[C@@H]2Cn3c(ccc(/C=C/c4ccccc4)c3=O)[C@H]1N2CC1CC1
- AC50 [4]: 11.1 µM (active)

Structure (SMILES): CC(=O)O[C@H](COc1c2ccoc2cc2oc(=O)ccc12)C(C)(C)O
- AC50 [3]: 3.74 µM (active)

Structure (SMILES): C[C@@H]1CN([C@@H](C)CO)C(=O)Cc2cc(NC(=O)Nc3ccc(C(F)(F)F)cc3)ccc2O[C@@H]1CN(C)S(=O)(=O)c1cccs1
- AC50 [11]: 3.54 µM (active)

Structure (SMILES): CCCCSc1nc2c(c(=O)[nH]c(=O)n2C)n1CCc1ccccc1
- AC50 (Escherichia coli): 50.8 µM (active)
